ChEMBL document CHEMBL3727358, “Inhibitors of inducible form of 6-phosphofructose-2-kinase” (2014)

Molecular target: 6-phosphofructo-2-kinase/fructose-2,6-bisphosphatase 3 (Homo sapiens, UniProt Q16875)
Test: Inhibition of iPFK2 (unknown origin) assessed as reduction in enzyme-mediated fructose-6-phosphate phosphorylation by measuring ATP consumption incubated for 3 hrs by luciferase-luciferin-coupled chemiluminescence assay

6-phosphofructo-2-kinase/fructose-2,6-bisphosphatase 3, sequence (Q16875 whole entry): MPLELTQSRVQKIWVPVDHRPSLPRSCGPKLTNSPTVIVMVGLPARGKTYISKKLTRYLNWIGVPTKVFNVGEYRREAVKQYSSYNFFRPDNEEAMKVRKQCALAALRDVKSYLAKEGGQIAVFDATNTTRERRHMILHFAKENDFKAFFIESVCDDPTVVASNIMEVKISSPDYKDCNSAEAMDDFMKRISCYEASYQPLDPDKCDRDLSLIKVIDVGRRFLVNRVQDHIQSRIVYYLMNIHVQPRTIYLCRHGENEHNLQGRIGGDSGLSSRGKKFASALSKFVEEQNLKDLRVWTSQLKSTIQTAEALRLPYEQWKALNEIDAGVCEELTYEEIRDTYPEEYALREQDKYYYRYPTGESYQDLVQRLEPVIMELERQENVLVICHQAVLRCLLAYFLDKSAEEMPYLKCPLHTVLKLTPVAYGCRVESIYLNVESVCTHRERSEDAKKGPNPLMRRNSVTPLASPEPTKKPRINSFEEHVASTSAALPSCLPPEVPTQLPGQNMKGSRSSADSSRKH

| IC50 | Compound |
| --- | --- |
| > 1000 nM | COc1cccc([C@H](C)Nc2cc(-c3ccc4ncoc4c3)nc(C)n2)c1 |
| > 1000 nM | Cc1nc(N[C@@H]2CCCc3ccccc32)cc(-c2ccc3c(c2)N(CCO)CCO3)n1 |
| > 1000 nM | COc1cccc([C@H](C)Nc2cc(-c3ccncc3)nc(C)n2)c1 |
| 500 nM | COc1cccc(-c2cc(NC(C)c3cccc(OCC#N)c3)nc(C)n2)c1 (stereo not drawn) |
| > 1000 nM | COc1cccc(-c2cc(NC(C)c3cccc(NCC(=O)O)c3)nc(C)n2)c1 (stereo not drawn) |
| > 1000 nM | COc1ccc(F)c(CNc2cc(-c3ccc4ncsc4c3)nc(C)n2)c1Cl |
| > 1000 nM | COc1cccc([C@@H](C)Nc2cc(-c3ccc4ncsc4c3)nc(C)n2)c1 |
| > 1000 nM | Cc1nc(NC2CCOc3ccc([N+](=O)[O-])cc32)cc(-c2ccc3ncsc3c2)n1 (stereo not drawn) |
| > 1000 nM | Cc1nc(N[C@@H]2CCCc3ccccc32)cc(-c2cccc(C(N)=O)c2)n1 |
| > 1000 nM | CCOC(=O)Cc1coc2ccc(-c3cc(N[C@@H]4CCCc5ccccc54)nc(C)n3)cc12 |
| > 1000 nM | COc1cccc(-c2cc(N[C@H]3CCCc4ccccc43)nc(C)n2)c1 |
| 500 nM | Cc1nc(NC(C)c2cccc(OCC(=O)N3CCOCC3)c2)cc(-c2ccc3ncsc3c2)n1 (stereo not drawn) |
| > 1000 nM | Cc1nc(N[C@@H]2CCCc3ccccc32)cc(-c2ccc3c(c2)OC(F)(F)O3)n1 |
| > 1000 nM | COC(=O)CNS(=O)(=O)c1cccc(C(C)Nc2cc(-c3cccc(OC)c3)nc(C)n2)c1 (stereo not drawn) |
| > 1000 nM | COc1cccc([C@H](C)Nc2cc(-c3ccc(N(C)C)cc3)nc(C)n2)c1 |
| 500 nM | Cc1nc(NC(C)c2cccc(OCCCN(C)C)c2)cc(-c2ccc3ncsc3c2)n1 (stereo not drawn) |
| > 1000 nM | CC(C)CCC(C)NC1C=C(c2ccc3ncsc3c2)N=CN1C (stereo not drawn) |
| > 1000 nM | Cc1nc(N[C@@H](C)c2cccc(-c3cccn3C)c2)cc(-c2ccc3ncsc3c2)n1 |
| 500 nM | CCCCC(CC)CNc1cc(-c2ccc3ncsc3c2)nc(C)n1 (stereo not drawn) |
| 500 nM | Cc1nc(N[C@@H]2CCCc3ccccc32)cc(-c2cccc(O)c2)n1 |
| 500 nM | COc1cccc(-c2cc(N[C@@H]3CCCc4ccccc43)nc(C)n2)c1Cl |
| > 1000 nM | COc1cccc(-c2cc(NC3CCCc4ccccc43)nc(C)n2)c1 (stereo not drawn) |
| > 1000 nM | COc1cccc([C@H](C)Nc2cc(-c3ccccc3C)nc(C)n2)c1 |
| 500 nM | Cc1cc(COc2cccc(C(C)Nc3cc(-c4cc5ccccc5n4C)nc(C)n3)c2)n(C)n1 (stereo not drawn) |
| 500 nM | COc1cccc(-c2cc(NC3CCc4ccccc43)nc(C)n2)c1Cl (stereo not drawn) |
| > 1000 nM | Cc1nc(NC(C)c2cccc(-c3cnn(C)c3)c2)cc(-c2ccc3c(c2)OCCO3)n1 (stereo not drawn) |

| IC50 | Compound |
| --- | --- |
| > 1000 nM | COc1cccc(C(C)Nc2cc(-c3ccc4occ(C)c4c3)nc(C)n2)c1F (stereo not drawn) |
| > 1000 nM | Cc1nc(N[C@@H]2CCCc3ccccc32)cc(-c2ccc3c(c2)N(CCO)CC3)n1 |
| 500 nM | CNC(=O)COc1cccc(C(C)Nc2cc(-c3cccc(OC)c3Cl)nc(C)n2)c1 (stereo not drawn) |
| > 1000 nM | Cc1ccc2c(c1)C(Nc1cc(-c3ccc4ncsc4c3)nc(C)n1)CCO2 (stereo not drawn) |
| > 1000 nM | Cc1nc(N[C@@H](C)c2cccc(-c3ccccc3)c2)cc(-c2ccc3ncsc3c2)n1 |
| 500 nM | Cc1nc(NC(C)c2cccc(OCC(O)CF)c2)cc(-c2ccc3ncsc3c2)n1 (stereo not drawn) |
| > 1000 nM | Cc1nc(NCCCC(C)(C)CO)cc(-c2ccc3ncsc3c2)n1 |
| > 1000 nM | CCCCCNc1cc(-c2ccc3ncsc3c2)nc(C)n1 |
| 500 nM | CNc1ccc(-c2cc(N[C@@H]3CCCc4ccccc43)nc(C)n2)cc1 |
| > 1000 nM | Cc1nc(NC(C)c2cccc(OCCn3cccc3)c2)cc(-c2ccc3ncsc3c2)n1 (stereo not drawn) |
| 500 nM | Cc1nc(NC2Cc3ccccc3C2)cc(-c2ccc3ncsc3c2)n1 |
| > 1000 nM | CCOc1cccc(-c2cc(N[C@@H]3CCCc4ccccc43)nc(C)n2)c1 |
| > 1000 nM | Cc1nc(NC(C)c2cccc(-c3ccsc3)c2)cc(-c2ccc3occ(C)c3c2)n1 (stereo not drawn) |
| > 1000 nM | COC(=O)CN1CCc2ccc(-c3cc(N[C@@H]4CCCc5ccccc54)nc(C)n3)cc21 |
| 500 nM | Cc1nc(NC(C)c2cccc(OCc3noc(C)n3)c2)cc(-c2ccc3ncsc3c2)n1 (stereo not drawn) |
| 500 nM | Cc1nc(NC(C)c2cccc(-c3ccoc3)c2)cc(-c2ccc3occ(C)c3c2)n1 (stereo not drawn) |
| > 1000 nM | CCn1cnc2ccc(-c3cc(N[C@@H]4CCCc5ccccc54)nc(C)n3)cc21 |
| > 1000 nM | COc1cccc([C@H](C)Nc2cc(-c3ccccc3F)nc(C)n2)c1 |
| > 1000 nM | Cc1nc(N[C@@H]2CCCc3ccccc32)cc(-c2ccc(N)cc2)n1 |
| > 1000 nM | Cc1nc(N[C@@H]2CCCc3ccccc32)cc(-c2cn[nH]c2)n1 |
| 500 nM | Cc1nc(NC(C)c2cccc(OCC(=O)NCCN(C)C)c2)cc(-c2ccc3ncsc3c2)n1 (stereo not drawn) |
| 500 nM | COc1cc(-c2cc(NC(C)c3cccc(OCc4ccn(C)n4)c3)nc(C)n2)ccc1C (stereo not drawn) |
| > 1000 nM | Cc1nc(NCCc2c[nH]cn2)cc(-c2ccc3ncsc3c2)n1 |
| > 1000 nM | CCCCCC(C)Nc1cc(-c2ccc3ncsc3c2)nc(C)n1 (stereo not drawn) |
| 500 nM | Cc1ccc([C@H](C)Nc2cc(-c3ccc4ccn(C)c4c3)nc(C)n2)cc1 |
| > 1000 nM | COc1cccc(-c2cc(N[C@@H](C)c3cccc(C(F)(F)F)c3)nc(C)n2)c1 |

| IC50 | Compound |
| --- | --- |
| > 1000 nM | Cc1nc(NC[C@@H]2CCCN(C(=O)OC(C)(C)C)C2)cc(-c2ccc3ncsc3c2)n1 |
| 500 nM | Cc1nc(NCCC2=CCCCC2)cc(-c2ccc3ncsc3c2)n1 |
| > 1000 nM | COc1cccc(C(CCC#N)Nc2cc(-c3ccc4ncsc4c3)nc(C)n2)c1 (stereo not drawn) |
| 500 nM | Cc1nc(NC(C)c2ccnc(Cl)c2)cc(-c2ccc3ncsc3c2)n1 (stereo not drawn) |
| > 1000 nM | Cc1nc(N[C@@H]2CCCc3ccccc32)cc(-c2cccc3[nH]ccc23)n1 |
| > 1000 nM | COc1cccc(-c2cc(NC(C)c3cccc(O)c3)nc(C)n2)c1 (stereo not drawn) |
| > 1000 nM | CCc1cccc(-c2cc(N[C@@H]3CCCc4ccccc43)nc(C)n2)c1 |
| > 1000 nM | COC(=O)CNc1cccc(CNc2cc(-c3cccc(OC)c3)nc(C)n2)c1 |
| > 1000 nM | CCOC(=O)CCNC(=O)CC(Nc1cc(-c2cccc(OC)c2)nc(C)n1)c1cccc(OC)c1 (stereo not drawn) |
| > 1000 nM | Cc1nc(N[C@@H]2CCCc3ccccc32)cc(-c2ccc3nc[nH]c3c2)n1 |
| > 1000 nM | COc1cccc([C@@H](C)Nc2cc(-c3ccc4occ(C)c4c3)nc(C)n2)c1 |
| > 1000 nM | CCc1coc2ccc(-c3cc(NC(C)c4cccc(OCc5cc(C)nn5C)c4)nc(C)n3)cc12 (stereo not drawn) |
| 500 nM | Cc1nc(NC(C)c2cccc(OCc3ccn[nH]3)c2)cc(-c2ccc3ncsc3c2)n1 (stereo not drawn) |
| 500 nM | Cc1nc(NC(C)c2cccc(-c3cnn(C)c3)c2)cc(-c2ccc3c(c2)CCO3)n1 (stereo not drawn) |
| > 1000 nM | COc1cccc([C@H](C)Nc2cc(-c3ccc4c(ccn4C)c3)nc(C)n2)c1 |
| > 1000 nM | COCc1cccc(-c2cc(N[C@@H]3CCCc4ccccc43)nc(C)n2)c1 |
| 500 nM | Cc1nc(NC(C)c2cccc(OC(C)(C)C(N)=O)c2)cc(-c2ccc3ncsc3c2)n1 (stereo not drawn) |
| 500 nM | COc1cccc([C@H](C)Nc2cc(-c3cccc(C)c3)nc(C)n2)c1 |
| 500 nM | COc1cc(-c2cc(NC(C)c3cccc(OCC(N)=O)c3)nc(C)n2)ccc1C (stereo not drawn) |
| 500 nM | CCOC(=O)CCCOc1cccc(C(C)Nc2cc(-c3ccc4ccn(C)c4c3)nc(C)n2)c1 (stereo not drawn) |
| > 1000 nM | COc1cccc([C@H](C)Nc2cc(-c3ccc4cc[nH]c4c3)nc(C)n2)c1 |
| 500 nM | Cc1nc(NC(C)c2cccc(-c3cnn(C)c3)c2)cc(-c2ccc3c(c2)N(C)CCO3)n1 (stereo not drawn) |
| 500 nM | COC(=O)c1cc(-c2cc(N[C@@H]3CCCc4ccccc43)nc(C)n2)ccc1Cl |
| > 1000 nM | COc1cccc([C@H](C)Nc2cc(-c3ccc4[nH]ncc4c3)nc(C)n2)c1 |
| > 1000 nM | Cc1nc(NCc2cc(-c3ccccc3)no2)cc(-c2ccc3ncsc3c2)n1 |
| > 1000 nM | Cc1cc(C)c2c(c1)C(Nc1cc(-c3ccc4ncsc4c3)nc(C)n1)CCC2 (stereo not drawn) |

| IC50 | Compound |
| --- | --- |
| > 1000 nM | CCc1coc2ccc(-c3cc(NC(C)c4cccc(O)c4)nc(C)n3)cc12 (stereo not drawn) |
| 500 nM | COc1cccc(-c2cc(NC(C)c3cccc(S(=O)(=O)NCC#N)c3)nc(C)n2)c1 (stereo not drawn) |
| 500 nM | Cc1nc(NCCC(C)C)cc(-c2ccc3ncsc3c2)n1 |
| > 1000 nM | Cc1nc(NC(C)c2cccc(-c3noc(C)n3)c2)cc(-c2ccc3ncsc3c2)n1 (stereo not drawn) |
| > 1000 nM | Cc1nc(NC(C)c2ccc(F)c(OCc3ccnn3C)c2)cc(-c2ccc3ncsc3c2)n1 (stereo not drawn) |
| 500 nM | Cc1nc(NC(C)c2cccc(C(=N)N)c2)cc(-c2ccc3ncsc3c2)n1 (stereo not drawn) |
| > 1000 nM | Cc1nc(N[C@@H]2CCCc3ccccc32)cc(-c2cccc(C=O)c2)n1 |
| > 1000 nM | COc1ccc(Cl)c(-c2cc(N[C@@H]3CCCc4ccccc43)nc(C)n2)c1 |
| 500 nM | Cc1cccc(-c2cc(N[C@@H]3CCCc4ccccc43)nc(C)n2)c1 |
| > 1000 nM | COc1cccc([C@H](C)Nc2cc(-c3cccnc3)nc(C)n2)c1 |
| > 1000 nM | COc1cccc([C@H](C)Nc2cc(-c3cc(OC)c(OC)c(OC)c3)nc(C)n2)c1 |
| > 1000 nM | Cc1nc(NC[C@@H](C)c2ccccc2)cc(-c2ccc3ncsc3c2)n1 |
| 500 nM | COc1cccc(-c2cc(NC(C)c3cccc(Br)c3)nc(C)n2)c1Cl (stereo not drawn) |
| 500 nM | COc1cccc(CNc2cc(-c3ccc4occ(C)c4c3)nc(C)n2)c1 |
| 500 nM | Cc1nc(N[C@H]2CCCc3ccccc32)cc(-c2ccc3ncsc3c2)n1 |
| > 1000 nM | Cc1nc(N[C@@H]2CCCc3ccccc32)cc(-c2ccc(OC(F)(F)F)cc2)n1 |
| > 1000 nM | CNC(=O)c1cc(-c2cc(N[C@@H]3CCCc4ccccc43)nc(C)n2)ccc1Cl |
| > 1000 nM | CCOC(=O)CC(Nc1cc(-c2cccc(OC)c2)nc(C)n1)c1cccc(OC)c1 (stereo not drawn) |
| > 1000 nM | Cc1nc(NCCc2ccc(O)cc2)cc(-c2ccc3ncsc3c2)n1 |
| > 1000 nM | Cc1nc(N[C@@H]2CCCc3ccccc32)cc(-c2cncnc2)n1 |
| > 1000 nM | COc1cccc([C@H](C)Nc2cc(-c3ccnc(C)c3)nc(C)n2)c1 |
| > 1000 nM | COc1cccc(-c2cc(NC(C)c3cccc(S(=O)(=O)NCC(=O)O)c3)nc(C)n2)c1 (stereo not drawn) |
| 500 nM | Cc1nc(NC(C)c2cccc(-c3ccc(F)nc3C)c2)cc(-c2ccc3ncsc3c2)n1 (stereo not drawn) |
| 500 nM | Cc1nc(NC(C)c2cccc(OCCCC(=O)O)c2)cc(-c2ccc3ncsc3c2)n1 (stereo not drawn) |
| > 1000 nM | Cc1nc(N[C@@H](C)c2ccc(Cl)cc2)cc(-c2ccc3ccn(C)c3c2)n1 |
